# Experiments:
# [1] = tested on: Plasmodium falciparum; assay: Antiprotozoal activity against Plasmodium falciparum K1 infected in human erythrocytes at 4.8 ug/m after 72 hrs by [3H]hypoxanthine incorporation; assay type: functional
# [2] = tested on: Trypanosoma cruzi; assay: Antiprotozoal activity against Trypanosoma cruzi Tulahuen C2C4 infected in rat skeletal myoblast at 4.8 ug/ml after 48 hrs; assay type: functional; details: Tulahuen C2C4, 48 h
# [3] = tested on: Trypanosoma brucei rhodesiense; assay: Antiprotozoal activity against Trypanosoma brucei rhodesiense STIB900 at 4.8 ug/mL by microplate alamar blue assay; assay type: functional
# [4] = tested on: Mycobacterium tuberculosis; assay: Antitubercular activity against Mycobacterium tuberculosis H37Rv by microplate alamar blue assay; assay type: functional, organism-based
# [5] = tested on: Leishmania donovani; assay: Antiprotozoal activity against Leishmania donovani MHOM/ET/67/L82 at 4.8 ug/m after 72 hrs by fluorimetry; assay type: functional
compound,measurement,setting,value
C[C@@H]1CC[C@H]2[C@@H](C)C(=O)O[C@@H]3O[C@@]4(C)CC[C@@H]1[C@]32OO4 [ARTEMISININ],inhibition (INH),[1],100%
O=C(Cn1ccnc1[N+](=O)[O-])NCc1ccccc1 [BENZNIDAZOLE],inhibition at 4.8 µg/mL,[2],89.6%
Nc1nc(N)nc(Nc2ccc([As]3SCC(CO)S3)cc2)n1 (stereo unspecified) [MELARSOPROL],inhibition at 4.8 µg/mL,[3],98.2%
O=C1OC(NCC(O)CO)C(Cl)=C1Cl (stereo unspecified),IC50,[4],> 100 µg/mL
same,IC90,[4],> 100 µg/mL
CCCCCCCCCCCCCCCCOP(=O)([O-])OCC[N+](C)(C)C [MILTEFOSINE],inhibition (INH),[5],92.5%

# Source: ChEMBL document CHEMBL1240432, “Synthesis and preliminary bioactivity assays of 3,4-dichloro-5-(omega-hydroxyalkylamino)-2(5H)-furanones” (Eur J Med Chem, 2010)
